The text below walks through data of US7267953B2, “Method for identification of modulators of pre-adipocyte differentiation” (AstraZeneca AB, priority 2001, dated 2007).

Test [1] relates to 3T3-L1 preadipocytes. The test can be described thus: Adipocyte differentiation of retrovirus infected 3T3-L1 preadipocytes, Oil Red O staining. The class given is cell-based, mouse. The conditions noted are these: vector or O/E-1 infected 3T3-L1; 0.5 μM in combination with dexamethasone (1 μM); stained at day 3, 4 and 7. The source says: The fibroblastic 3T3-L1 preadipocyte cells have the capability to differentiate to adipocytes when given the proper hormonal stimulation, usually a combination of dexamethasone, insulin and isobutylmethylxanthine, as opposed to NIH/3T3 where overexpression of adipocyte differentiating factors is necessary to get adipocyte development. Untransformed mouse embryonic fibroblasts (MEF) can also be forced to adipocyte differentiation using the same adipogenic factors; the efficiency is however much lower than with 3T3-L1. […] Stable clones were selected 2-3 days using puromycin (2 μg/ml) and surviving cells were grown to confluence. 3T3-L1 cells differentiate to adipocytes at high rate when all adipogenic inducers are present and this could make it difficult discriminate the effect of an additional adipogenic signal. The cells were therefore induced with dexamethasone (1 μM) alone for two days or in combination with darglitazone (0.5 μM) throughout the experiment to get a low differentiation rate. MEF on the other hand develop into adipocytes quite inefficiently and were thus induced with the more powerful adipogenic combination of dexamethasone (1 μM), insulin (5 μg/ml) isobutylmethylxanthine (0.115 mg/ml) and darglitazone (0.5 μM) for two days, insulin and darglitazone for two days and darglitazone alone all through the experiment. […]

The subject of test [2] is mouse embryonic fibroblasts (MEF). The test can be described thus: Adipocyte differentiation of retrovirus infected mouse embryonic fibroblasts (MEF), Oil Red O staining. Type of test: cell-based. The conditions noted are these: Oil Red O at day 13 post-induction. From the text:
The fibroblastic 3T3-L1 preadipocyte cells have the capability to differentiate to adipocytes when given the proper hormonal stimulation, usually a combination of dexamethasone, insulin and isobutylmethylxanthine, as opposed to NIH/3T3 where overexpression of adipocyte differentiating factors is necessary to get adipocyte development. Untransformed mouse embryonic fibroblasts (MEF) can also be forced to adipocyte differentiation using the same adipogenic factors; the efficiency is however much lower than with 3T3-L1. […] Stable clones were selected 2-3 days using puromycin (2 μg/ml) and surviving cells were grown to confluence. 3T3-L1 cells differentiate to adipocytes at high rate when all adipogenic inducers are present and this could make it difficult discriminate the effect of an additional adipogenic signal. The cells were therefore induced with dexamethasone (1 μM) alone for two days or in combination with darglitazone (0.5 μM) throughout the experiment to get a low differentiation rate. […] At day 13 post-induction adipate differentiation was measured by Oil Red O staining. […]

For test [3], the system named is NIH/3T3 mouse fibroblasts. Kind of test: Adipocyte differentiation of retrovirus infected NIH/3T3 fibroblasts, Oil Red O staining. Type of test: cell-based. The conditions noted are these: Oil Red O after 10 days. From the text: A classical way of studying the adipocyte differentiating potential of a gene is to overexpress it in either uncommitted NIH/3T3 fibroblasts or in 3T3-L1 preadipocytes using retroviral transfer. The adipocyte differentiating potential can then be assayed by microscopic examination and by staining with lipophilic dyes such as Oil Red O. O/E-1 was thus expressed in mouse NIH/3T3 fibroblasts, 3T3-L1 preadipocytes and mouse embryonic fibroblasts to investigate its adipocyte differentiating potential. cDNAs encoding mouse O/E-1, human O/E-1 and mouse PPARγ2 were cloned in the pBabepuro retrovirus vector. These retrovirus vectors as well as the empty vector were transiently transfected into Phoenix high efficiency packaging cells. Retroviruses containing supernatants were used to infect NIH/3T3 mouse fibroblasts. After puromycin (2 μg/ml) selection for two days, cells were allowed to grow to confluence after which adipogenic inducers were added (DIM, see above), after 10 days cells were stained with the lipophilic dye Oil Red O. As expected PPARγ induced some differentiation of NIH/3T3 mouse fibroblasts into lipid-containing cells that resembled cultured adipocytes in the presence of adipogenic inducers (FIG. 3). […] The ability of human O/E-1 to induce adipocyte differentiation of NIH/3T3 was also tested and found to be similar as that of mouse O/E-1 (Data not shown).

Turning to `Cc1oc(-c2ccccc2)nc1CCC(=O)c1ccc(CC2SC(=O)NC2=O)cc1` (stereo not drawn) [darglitazone], in test [1], the “overall rate of adipocyte differentiation” value is listed as “overall rate of differentiation was enhanced”. The adipocyte differentiation entry in test [2] (human O/E-1 infected MEF) is “even further enhanced differentiation”. Moreover, the “number of cells that developed into adipocytes” value in test [2] (vector infected MEF, compared with vehicle) is “increased the number of cells that developed into adipocytes”. Besides, in test [3] (PPARγ2 infected NIH/3T3, 0.5 μM present throughout with adipogenic inducers (DIM)), the “differentiation into lipid-containing adipocyte-like cells” value is given as “dramatic increase”. Further, in test [3] (mouse O/E-1 infected NIH/3T3, adipogenic inducers (DIM), 0.5 μM), the development to adipocytes entry is “greatly enhanced”. Moreover, in test [3] (vector infected NIH/3T3, adipogenic inducers (DIM), 0.5 μM), the differentiation into adipocytes entry is “No differentiation was observed”.
